Assay results published in ChEMBL document CHEMBL1201862, “PubChem BioAssay data set” (2004).
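A five-concentration, 48-hour dose response in 96-well plates underlies each endpoint, interpolated linearly between surrounding concentrations. GI50 is the concentration that inhibits growth by half.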 The source made the active and inactive calls. Cut-off read from the data, not from the text of the source: active = GI50 up to about 1.1 µM and inactive = higher.

What was measured:
Assay in all cases: NCI-60 cell line screen, 48 h
HCC 2998 = tested on: HCC 2998
786-0 = tested on: 786-0
K562 = tested on: K562
IGROV-1 = tested on: IGROV-1
TK-10 = tested on: TK-10
NCI/ADR-RES = tested on: NCI/ADR-RES
PC-3 = tested on: PC-3
T47D = tested on: T47D
SK-MEL-2 = tested on: SK-MEL-2
NCI-H522 = tested on: NCI-H522
M14 = tested on: M14
LOX IMVI = tested on: LOX IMVI
U-251 = tested on: U-251
SF-268 = tested on: SF-268
SK-OV-3 = tested on: SK-OV-3
RXF 393 = tested on: RXF 393
MOLT-4 = tested on: MOLT-4
UACC-257 = tested on: UACC-257
MDA-MB-231 = tested on: MDA-MB-231

Compound	GI50 (HCC 2998)	GI50 (786-0)	GI50 (K562)	GI50 (IGROV-1)	GI50 (TK-10)	GI50 (NCI/ADR-RES)	GI50 (PC-3)	GI50 (T47D)	GI50 (SK-MEL-2)	GI50 (NCI-H522)	GI50 (M14)	GI50 (LOX IMVI)	GI50 (U-251)	GI50 (SF-268)	GI50 (SK-OV-3)	GI50 (RXF 393)	GI50 (MOLT-4)	GI50 (UACC-257)	GI50 (MDA-MB-231)
CCOC(=O)C(C(=O)OCC)=C1NC2(c3ccccc3Nc3ccc(C)cc32)C(C#N)S1 (centres undefined)	3.57 µM (inactive)	6.79 µM (inactive)	4.9 µM (inactive)	7.36 µM (inactive)	8.47 µM (inactive)	5.2 µM (inactive)	3.56 µM (inactive)	4.39 µM (inactive)	8.07 µM (inactive)	11.2 µM (inactive)	3.92 µM (inactive)	12.1 µM (inactive)	5.57 µM (inactive)	9.12 µM (inactive)	13.4 µM (inactive)	6.68 µM (inactive)	2.4 µM (inactive)	11.3 µM (inactive)	
COc1cccc([C@@]2(O)c3c(ccc(O)c3OC)[C@H]2OC)c1OC	25.7 µM (inactive)	14.4 µM (inactive)	44.5 µM (inactive)	40.6 µM (inactive)	31.1 µM (inactive)				37.8 µM (inactive)	16.3 µM (inactive)	30.5 µM (inactive)		51.4 µM (inactive)	33.8 µM (inactive)	31.8 µM (inactive)		45.5 µM (inactive)	98.2 µM (inactive)	
CC1=Nc2c(C#N)ncn2N=C(C)C1		> 100 µM (inactive)	> 100 µM (inactive)	> 100 µM (inactive)	> 100 µM (inactive)	> 100 µM (inactive)	> 100 µM (inactive)		> 100 µM (inactive)		> 100 µM (inactive)	> 100 µM (inactive)	> 100 µM (inactive)	> 100 µM (inactive)	49 µM (inactive)	> 100 µM (inactive)	> 100 µM (inactive)	> 100 µM (inactive)	> 100 µM (inactive)
O=C1C(NCCN2CCOCC2)=C(Cl)C(=O)c2ncccc21	0.625 µM (active)	0.431 µM (active)	0.179 µM (active)	1.05 µM (active)	1.45 µM (inactive)		0.289 µM (active)	1.39 µM (inactive)	0.226 µM (active)		0.469 µM (active)	0.168 µM (active)	0.849 µM (active)	1.52 µM (inactive)	1.43 µM (inactive)	0.327 µM (active)	2.15 µM (inactive)		1.58 µM (inactive)
COC(=O)C(=O)C(C(=O)C(=O)Nc1ccccc1C(N)=O)c1nc2ccc([N+](=O)[O-])cc2nc1O (centres undefined)	> 100 µM (inactive)	> 100 µM (inactive)	> 100 µM (inactive)	> 100 µM (inactive)	> 100 µM (inactive)				> 100 µM (inactive)	> 100 µM (inactive)	> 100 µM (inactive)	> 100 µM (inactive)	> 100 µM (inactive)	> 100 µM (inactive)	> 100 µM (inactive)	> 100 µM (inactive)	> 100 µM (inactive)	> 100 µM (inactive)	
CC1=NN(c2nc(N)nc(NS(=O)(=O)c3cc(C)c(Cl)cc3S)n2)C(C)(C)C1	> 10 µM (inactive)	> 10 µM (inactive)	> 10 µM (inactive)	> 10 µM (inactive)	> 10 µM (inactive)	> 10 µM (inactive)	> 10 µM (inactive)	> 10 µM (inactive)	> 10 µM (inactive)	> 10 µM (inactive)	> 10 µM (inactive)	> 10 µM (inactive)	> 10 µM (inactive)	> 10 µM (inactive)	> 10 µM (inactive)	> 10 µM (inactive)	> 10 µM (inactive)	> 10 µM (inactive)	
COc1nc(N)c(C#N)c(C#N)c1C#N	> 10 µM (inactive)	> 10 µM (inactive)	> 10 µM (inactive)		> 10 µM (inactive)	> 10 µM (inactive)	> 10 µM (inactive)			> 10 µM (inactive)	> 10 µM (inactive)	> 10 µM (inactive)	> 10 µM (inactive)	> 10 µM (inactive)	> 10 µM (inactive)		> 10 µM (inactive)	> 10 µM (inactive)	> 10 µM (inactive)
Cc1ccc(/N=C2\SC(=S)N(CCC[N+](C)(C)C)\C2=N/c2ccc(C)cc2)cc1	15.9 µM (inactive)	14.1 µM (inactive)	7.13 µM (inactive)	10.1 µM (inactive)	18.9 µM (inactive)		13.7 µM (inactive)	2.29 µM (inactive)	11 µM (inactive)		21.1 µM (inactive)		11.3 µM (inactive)			2.49 µM (inactive)	10.1 µM (inactive)	12 µM (inactive)	14.3 µM (inactive)
COc1cc2c(c(OC)c1OC)C(=O)CC2N (centres undefined)	> 100 µM (inactive)	> 100 µM (inactive)	> 100 µM (inactive)	> 100 µM (inactive)	> 100 µM (inactive)	> 100 µM (inactive)	> 100 µM (inactive)		> 100 µM (inactive)	> 100 µM (inactive)	> 100 µM (inactive)	> 100 µM (inactive)	> 100 µM (inactive)	> 100 µM (inactive)	> 100 µM (inactive)		> 100 µM (inactive)	> 100 µM (inactive)	> 100 µM (inactive)
COC1O[C@@H]2CCN3C(=O)[C@@H](OC(=O)c4ccc([N+](=O)[O-])cc4)[C@H]1C23 (some centres undefined)	> 100 µM (inactive)	> 100 µM (inactive)	> 100 µM (inactive)	> 100 µM (inactive)	> 100 µM (inactive)	> 100 µM (inactive)		> 100 µM (inactive)		> 100 µM (inactive)	> 100 µM (inactive)	> 100 µM (inactive)	> 100 µM (inactive)	> 100 µM (inactive)	> 100 µM (inactive)	> 100 µM (inactive)	> 100 µM (inactive)	> 100 µM (inactive)	> 100 µM (inactive)
O=S(=O)(NCn1ccc2ccccc21)c1ccccc1	> 100 µM (inactive)	> 100 µM (inactive)	> 100 µM (inactive)	> 100 µM (inactive)	> 100 µM (inactive)				> 100 µM (inactive)	> 100 µM (inactive)	> 100 µM (inactive)	66.5 µM (inactive)	> 100 µM (inactive)	> 57.8 µM (inactive)	> 100 µM (inactive)	> 63.8 µM (inactive)	> 100 µM (inactive)	> 88.7 µM (inactive)	
COc1ccc(-c2c3c(n(C4OC(COC(C)=O)C(OC(C)=O)C(OC(C)=O)C4OC(C)=O)c(=S)c2C#N)CCC3)cc1 (centres undefined)	> 100 µM (inactive)	> 100 µM (inactive)	> 100 µM (inactive)	> 100 µM (inactive)	> 100 µM (inactive)	> 100 µM (inactive)	> 100 µM (inactive)		> 100 µM (inactive)		> 100 µM (inactive)	> 100 µM (inactive)	> 100 µM (inactive)	> 100 µM (inactive)	> 100 µM (inactive)	92.3 µM (inactive)	> 100 µM (inactive)	> 100 µM (inactive)	
CCCCCCCCCCCCCCCCCc1nnc(N)o1	> 100 µM (inactive)	> 100 µM (inactive)	> 100 µM (inactive)	> 100 µM (inactive)	> 100 µM (inactive)				> 100 µM (inactive)	> 100 µM (inactive)	> 100 µM (inactive)	> 100 µM (inactive)	> 100 µM (inactive)	> 100 µM (inactive)	> 100 µM (inactive)		> 100 µM (inactive)	> 100 µM (inactive)	
